One data set concerns the target MC4 receptor (Homo sapiens, UniProt P32245). Nature of the data set: MC4 EC50 functional potency (protocol E of US2005/0176772 / WO 2005/077935). It is filed as cell-based. The protocol:
The compounds of formula (I) of the present invention have utility as MCR4 agonists in the treatment of various disease states.
MC5 and MC4 EC50 activity was determined as described by assay protocols D and E, respectively, in US2005/0176772 (pages 28-30).

The next data set has as its target T1, MC4 receptor (MC4R) (Homo sapiens, UniProt P32245).
T1 construct: expressed in transfected cells; host or cells: CHO-CRE MC4R cells (membranes)
Nature of the data set: Nle4, D-Phe7-α-MSH inhibition at the MC4 receptor (competition binding, SPA, CHO-CRE MC4R membranes). An excerpt:
Nle4, D-Phe7-α-MSH Inhibition at the MC4 Receptor
Nle4, D-Phe7-α-MSH is a stable analogue of melanocyte-stimulating hormone (MSH), which is an agonist at the MC4 receptor (MC4R). Compounds can be evaluated for their ability to inhibit Nle4, D-Phe7-α-MSH binding to membranes from cells expressing the MC4R using a competition binding assay versus [^125I] Nle4, D-Phe7-α-MSH.
Cells expressing the MC4R were subject to homogenisation and the membrane fragment isolated by differential centrifugation. CHO-CRE MC4R cell membranes were coupled to PVT-PEI-WGA SPA Beads type A for 2 hours, spun at 1000 RPM for 5 min and suspended to a concentration of 300 ug bead/ml (0.15 ug membrane, 15 ug bead per well). Bead/membrane mix was incubated with 0.06 nM [^125I] Nle4, D-Phe7-α-MSH and 11 half-log concentrations of competitor ligand, in duplicate, in a total volume of 50 μl buffer per well (25 mM HEPES, 1 mM MgCl2, 2.5 mM CaCl2, 1% Pluronic F68, 1 complete EDTA protease inhibitor tablet/50 ml pH7). Non-specific binding was determined by the inclusion of 100 nM SHU9119. The reaction was initiated by the addition of bead/membranes and plates were incubated at room temperature for 12 hours (the first hour on a plate shaker), after which the amount of radioactivity present was determined using a Wallac plate counter. Ki values were determined by data analysis using appropriate software.

The target of the next data set is T2, MC3 receptor (MC3R) (Homo sapiens, UniProt P41968).
T2 construct: expressed in transfected cells; host or cells: CHO-CRE MC3R cells (membranes)
Nature of the data set: Nle4, D-Phe7-α-MSH inhibition at the MC3 receptor (competition binding, SPA, CHO-CRE MC3R membranes). The procedure, abridged:
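Competition binding by SPA used CHO-CRE MC3R membranes on WGA beads with 0.06 nM [125I]Nle4,D-Phe7-α-MSH and 11 half-log competitor concentrations. Buffer was 25 mM HEPES, MgCl2, CaCl2, 1% Pluronic F68, pH7, incubated 12 h at room temperature. Non-specific binding was defined with 100 nM SHU9119, and Ki values were derived.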

A further data set addresses T3, CYP3A4 (Homo sapiens, UniProt P08684).
T3 construct: utilizes human liver microsomes together with isoform-specific clinical drug probes; from tissue; host or cells: human liver microsomes
Nature of the data set: High density DDI 3 μM cocktail screen in human liver microsomes, midazolam probe. Format: in vitro ADME. The note with it: human, liver microsomes, probe midazolam, read-out: % inhibition 3A4 @ 3 μM. The procedure, abridged:
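Pooled human liver microsomes incubated with isoform-specific clinical probe substrates as a cocktail (midazolam for CYP3A4), with or without test compound at 3 μM. Metabolite formation followed over time by LC-MS/MS. Inhibition expressed as a single-point percentage.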

The nature of data set [1]: In vitro metabolism rate determination, human liver microsome (HLM) assay. Format: in vitro ADME. The conditions noted are these: human, liver microsomes, read-out: HLM: Clint, app. The procedure, abridged: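 Human liver microsomes at 0.5 nmol cytochrome P450/ml with 1 μM substrate, pre-warmed 5 min at 37° C, reaction started with NADP; samples taken 0–60 min and terminated. Substrate loss measured; first-order rate constant from log-linear regression converted to half-life or Clint (μl/min/mg protein).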
In general terms: Liver microsomes are a subcellular fraction often used to study metabolism.

T3 sequence (P08684 whole entry, canonical isoform): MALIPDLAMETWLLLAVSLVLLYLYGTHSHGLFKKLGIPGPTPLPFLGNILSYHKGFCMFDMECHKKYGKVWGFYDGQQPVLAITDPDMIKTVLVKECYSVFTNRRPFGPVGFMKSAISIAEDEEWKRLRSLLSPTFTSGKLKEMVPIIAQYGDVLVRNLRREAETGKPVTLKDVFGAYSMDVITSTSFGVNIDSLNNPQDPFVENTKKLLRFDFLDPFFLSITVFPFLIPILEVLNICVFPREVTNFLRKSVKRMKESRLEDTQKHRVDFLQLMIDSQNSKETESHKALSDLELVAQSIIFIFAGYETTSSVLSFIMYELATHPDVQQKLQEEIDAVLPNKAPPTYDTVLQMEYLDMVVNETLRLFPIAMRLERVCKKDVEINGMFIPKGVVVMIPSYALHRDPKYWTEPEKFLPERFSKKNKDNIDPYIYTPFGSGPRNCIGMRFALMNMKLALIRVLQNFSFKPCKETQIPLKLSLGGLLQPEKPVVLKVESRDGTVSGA
T2 sequence (P41968 whole entry): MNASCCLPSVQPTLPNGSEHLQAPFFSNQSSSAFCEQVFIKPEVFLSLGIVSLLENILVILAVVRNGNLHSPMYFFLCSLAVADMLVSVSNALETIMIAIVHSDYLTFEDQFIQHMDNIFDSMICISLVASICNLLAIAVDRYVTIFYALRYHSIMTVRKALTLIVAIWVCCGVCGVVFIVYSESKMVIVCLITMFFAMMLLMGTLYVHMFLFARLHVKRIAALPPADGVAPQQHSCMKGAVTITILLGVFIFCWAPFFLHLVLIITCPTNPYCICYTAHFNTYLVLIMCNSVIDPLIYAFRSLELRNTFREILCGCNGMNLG
MC4 receptor, sequence (P32245 whole entry): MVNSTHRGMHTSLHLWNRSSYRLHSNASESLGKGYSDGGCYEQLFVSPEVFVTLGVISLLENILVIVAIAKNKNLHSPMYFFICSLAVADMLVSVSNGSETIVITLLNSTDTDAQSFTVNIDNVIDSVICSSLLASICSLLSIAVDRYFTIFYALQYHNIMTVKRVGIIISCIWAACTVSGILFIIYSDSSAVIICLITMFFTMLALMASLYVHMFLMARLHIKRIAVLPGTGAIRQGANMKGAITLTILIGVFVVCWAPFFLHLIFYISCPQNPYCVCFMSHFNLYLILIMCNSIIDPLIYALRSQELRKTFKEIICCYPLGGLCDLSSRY
T1 sequence (P32245 whole entry): as above

With `COc1ccc([C@@H]2CN(c3ccc(=O)[nH]n3)C[C@H]2C(=O)N2CCCC(c3ccc(Cl)cc3)N(S(C)(=O)=O)CC2)c(F)c1` (single isomer, unassigned) [Example 113], on MC4 receptor, the EC50 worked out at 12.7 nM. Also, the Ki on MC4 receptor (MC4R) worked out at 50.5 nM; at MC3 receptor (MC3R), 1300 nM. Moreover, the inhibition at 3 µM on CYP3A4 was 44.3%. In data set [1], the microsomal CLint at 1 μM came to 24.8 µL/min/mg.
For `COC(=O)N1CCN(C(=O)[C@@H]2CN(c3ccc(C#N)nn3)CC2c2ccc(OC)cc2F)CCCC1c1ccc(Cl)cc1` (stereo in doubt) [Example 106, methyl 8-(4-chlorophenyl)-4-{[(3S,4S)-4-(2-fluoro-4-methoxyphenyl)-1-(6-cyanopyridazin-3-yl)pyrrolidin-3-yl]carbonyl}-1,4-diazocane-1-carboxylate] the same measures were 6.4 nM, 28.5 nM, 250 nM, 66.5% and 38 µL/min/mg.
The like results for `CC(=O)N1CCN(C(=O)[C@@H]2CN(c3ccc4nncn4n3)C[C@H]2c2ccc(Cl)cn2)CCC[C@@H]1c1ccc(Cl)cc1` [Example 5] were, in that order, 23.2 nM, 226 nM, 1680 nM, 80.4% and 17.4 µL/min/mg.
`CC(=O)N1CCN(C(=O)[C@@H]2CN(C(C)(C)C)C[C@H]2c2ccc(F)cc2F)CCC[C@H]1c1ccc(Cl)cc1` [Example 8] registered an EC50 on MC4 receptor of 52.1 nM. Also, the Ki at MC4 receptor (MC4R) was 1010 nM; on MC3 receptor (MC3R), 11500 nM. For the same compound, at CYP3A4, the inhibition at 3 µM turned out to be 23.9%. The microsomal CLint at 1 μM in data set [1] came out at 17 µL/min/mg.
For `COCC(=O)N1CCN(C(=O)[C@@H]2CN(C(C)(C)C)C[C@H]2c2ccc(F)cc2F)CCC[C@H]1c1ccc(Cl)cc1` [Example 9] the same measures were 52.8 nM, 1530 nM, 12600 nM, 29.1% and 44.7 µL/min/mg.
The like results for `CC(C)(C)N1C[C@@H](C(=O)N2CCC[C@@H](c3ccc(Cl)cc3)N(C(=O)CC(F)(F)F)CC2)[C@H](c2ccc(F)cc2F)C1` [Example 12] were, in that order, 32.8 nM, 807 nM, 4150 nM, 34% and 17 µL/min/mg.
On MC4 receptor, `CCCC(=O)N1CCN(C(=O)[C@@H]2CN(C(C)(C)C)C[C@H]2c2ccc(F)cc2F)CCC[C@H]1c1ccc(Cl)cc1` [Example 13] yielded an EC50 of 13.8 nM. Further, the Ki at MC4 receptor (MC4R) was 366 nM; on MC3 receptor (MC3R), 5000 nM. For the same compound, the inhibition at 3 µM on CYP3A4 stood at 48.8%. Moreover, the microsomal CLint at 1 μM in data set [1] came to 37.8 µL/min/mg.
For `CC(C)CC(=O)N1CCN(C(=O)[C@@H]2CN(C(C)(C)C)C[C@H]2c2ccc(F)cc2F)CCC[C@H]1c1ccc(Cl)cc1` [Example 16] the same measures were 18.5 nM, 378 nM, 2100 nM, 55.5% and 92.6 µL/min/mg.
For `CC(C)(C)N1C[C@@H](C(=O)N2CCC[C@@H](c3ccc(Cl)cc3)N(C(=O)C3CCCC3)CC2)[C@H](c2ccc(F)cc2F)C1` [Example 17] the same measures were 43.3 nM, 513 nM, 2780 nM, 66.9% and 118 µL/min/mg.
For `CN(C)C(=O)N1CCN(C(=O)[C@@H]2CN(c3ccc(C#N)nn3)C[C@H]2c2ccc(Cl)cn2)CCC[C@H]1c1ccc(Cl)cc1` [Example 45] the same measures were 10.8 nM, 121 nM, 101 nM, 75.8% and 234 µL/min/mg.
`COC(=O)N1CCN(C(=O)[C@@H]2CN(c3ccc(=O)[nH]n3)C[C@H]2c2ccc(OC)cc2F)CCC[C@H]1c1ccc(Cl)cc1` [Example 69, methyl 8S-(4-chlorophenyl)-4-{[(3S,4R)-4-(2-fluoro-4-methoxyphenyl)-1-(6-oxo-1,6-dihydropyridazin-3-yl)pyrrolidin-3-yl]carbonyl}-1,4-diazocane-1-carboxylate] yielded an EC50 at MC4 receptor of 7.6 nM. Moreover, the Ki on MC4 receptor (MC4R) came out at 16.4 nM; on MC3 receptor (MC3R), 990 nM. The inhibition at 3 µM on CYP3A4 was 53%. Further, the microsomal CLint at 1 μM in data set [1] came to 8 µL/min/mg.
The like results for `COC(=O)N1CCN(C(=O)[C@@H]2CN(C(C)(C)C)C[C@H]2c2ccc(OC)cc2F)CCC[C@H]1c1ccc(Cl)cc1` [Example 71] were, in that order, 55.4 nM, 1050 nM, 10300 nM, 49.5% and 43.4 µL/min/mg.
The like results for `COC(=O)N1CCN(C(=O)[C@@H]2CN(c3ccc(C#N)nn3)C[C@H]2c2ccc(Cl)cn2)CCC[C@H]1c1ccc(Cl)cc1` [Example 98, methyl 8S-(4-chlorophenyl)-4-{[(3S,4S)-4-(5-chloropyridin-2-yl)-1-(6-cyanopyridazin-3-yl)pyrrolidin-3-yl]carbonyl}-1,4-diazocane-1-carboxylate] were, in that order, 5.26 nM, 52 nM, 201 nM, 46.9% and 13.9 µL/min/mg.
For `CS(=O)(=O)N1CCN(C(=O)[C@@H]2CN(c3ccc(C#N)nn3)C[C@H]2c2ccc(Cl)cn2)CCC[C@H]1c1ccc(Cl)cc1` [Example 102] the same measures were 12 nM, 174 nM, 545 nM, 65% and 16 µL/min/mg.
The compound `COc1ccc([C@@H]2CN(c3ccc(Cl)nn3)C[C@H]2C(=O)N2CCCC(c3ccc(Cl)cc3)N(S(C)(=O)=O)CC2)c(F)c1` (stereo partly drawn) [Example 108, [5-(4-chlorophenyl)-4-(methylsulfonyl)-1,4-diazocan-1-yl]-[(3S,4R)-1-(6-chloro-pyridazine-3-yl)-4-(2-fluoro-4-methoxyphenyl)-pyrrolidin-3-yl]-methanone] registered an EC50 at MC4 receptor of 123 nM. Further, the inhibition constant (Ki) at MC4 receptor (MC4R) turned out to be 180 nM; at MC3 receptor (MC3R), 875 nM. The inhibition at 3 µM at CYP3A4 came out at 63.5%. Also, in data set [1], the microsomal CLint at 1 μM came to 59 µL/min/mg.

Usually EC50 stands for the concentration at which the effect is half-maximal. A high value points to lower potency in that assay. The term Ki denotes the dissociation constant of the complex between target and ligand, obtained from inhibition or displacement. Read a low Ki as tighter binding. The term inhibition denotes the share of the control response that was lost under treatment.

Values taken from patent US8592403B2, “Diazepine and diazocane compounds as MC4 agonists” (Pfizer Limited, priority 2008, dated 2013).
